Test results published in patent US20180064635A1, “COSMETIC COMPOSITION COMPRISING SLIME OF SNAIL FED WITH BERRY FRUITS AND PREPARATION METHOD THEREOF” (CREALAND CO., LTD, priority 2015, published 2018).

Key:
[1] = Skin moisturizing effect, capacitance measurement on flexor surface of the forearm; type: in vivo, human (30 females in their 20s and 30s); settings: 1 wt % aqueous solution, 2.0 mg/cm2
Description: Measurement of moisturizing effect of snail slime filtrates prepared in Examples 1 and 2 and Comparative Examples 1 and 2 was carried out by a capacitance measurement scheme using an oil and moisture analyzer (WSK-P500U, Inforward. Inc., Japan). 1 wt % an aqueous solution of the snail slime filtrates prepared in Examples 1 and 2 and Comparative Examples 1 and 2 was compared with 1 wt % aqueous solution of hyaluronic acid sodium salt (Sigma) which is known to be excellent in a skin moisturizing effect based on various studies.
30 females in their 20s and 30s were targeted, a flexor surface of the forearm was allowed to acclimate to a constant temperature and humidity chamber (22° C. and 40-60% of relative humidity) for 20 minutes right before the test starts, and the moisture of the skin was constantly maintained. Then, after measuring the initial moisture content of an application site of each sample using the oil and moisture analyzer (WSK-P500U, Inforward. Inc., Japan), each of the samples at 2.0 mg/cm2 was applied at a different position for each examinee to minimize an error according to the flexor surface of the forearm. The skin moisture was firstly measured at time intervals of 10 minutes, 30 minutes, 50 minutes, 90 minutes, and 120 minutes after the application, and after 2 hours, the skin moisture was measured again.
Each measurement site was measured repeatedly for three times and skin moisture was calculated by the average value.

[2] = Active oxygen scavenging test (xanthine/xanthine oxidase, NBT); type: biochemical; settings: snail slime filtrates, absorbance 540 nm
Description: In the active oxygen scavenging test, changes on the absorbance are measured using the oxidation of nitroblue tetrazolium (NBT) by active oxygen by using active oxygen generation upon enzymatic reaction of xanthine/xanthine oxidase (Sigma), thus the scavenging ability of the active oxygen can be confirmed.
2.4 ml of sodium carbonate (Na2CO3), 0.1 ml of xanthine (Sigma), 0.1 ml of ethylene diamine tetra acetic acid (EDTA), 0.1 ml of bovine serum albumin (BSA, Sigma), 0.1 ml of NBT, and 1 ml of the snail slime filtrates prepared in Examples 1 and 2 and Comparative Examples 1 and 2 were added, vortexing was carried out by using a vortex mixer (Type 37600 Mixer, Mini mix, USA), the mixture was left at 25° C. for 10 minutes. After 0.1 ml of xanthine oxidase was added and reacted at 25° C. for 20 minutes, the reaction was stopped by inputting 6 mM of CuCl2, and the absorbance was measured at the wavelength of 540 nm by using a microplate reader (UVT-06685, Thermo max, USA).
The control group in the active oxygen scavenging activity test was measured in the same manner by inputting third distilled water instead of the sample solution. […]
Active oxygen scavenging rate (%)=100−((absorbance of sample/absorbance of control group)×100)

[3] = Free radical scavenging test (DPPH); type: biochemical; settings: snail slime filtrates, 37° C. 15 minutes, absorbance 540 nm
Description: A free radical scavenging test and a reactive oxygen scavenging test were performed in order to confirm the antioxidant effect of the snail slime filtrates prepared in Examples 1 and 2 and Comparative Examples 1 and 2, as a verifying test for a skin aging improvement effect.
The snail slime filtrates prepared in the above Examples 1 and 2 and Comparative Examples 1 and 2 were diluted with methanol in a predetermined concentration, and 1 ml of the dilution was mixed with 1 ml of a 0.1 mM 2,2-diphenyl-1-picryl-hydrazyl radical (DPPH, Sigma) solution. After the mixture leaves at 37° C. for 15 minutes, the absorbance was measured at the wavelength of 540 nm by using a microplate reader (Thermo max, USA).
In the above free radical scavenging test, the control group was measured In the same manner by inputting 1 ml of DPPH and 1 ml of methanol, and color correction values were obtained with respect to each of the sample and the control group by inputting 1 ml of methanol and 1 ml of sample.
SC50 is the concentration of the sample required to scavenge 50% of the free radicals, and the smaller value indicates the higher antioxidant activity.
Free radical scavenging rate (%)=100−((absorbance of sample/absorbance of control group)×100)

In the case of hyaluronic acid sodium salt, the “Moisture content subject to time after application” value (“Moisture content subject to time” for short) ([1]; 10 minutes after application) is reported as 61.31 A.U, the “Moisture content subject to time” value ([1]; 30 minutes after application) is reported as 58.24 A.U and the “Moisture content subject to time” value ([1]; 50 minutes after application) is reported as 57.21 A.U. The “Moisture content subject to time” value ([1]; 90 minutes after application) was 55.87 A.U and the “Moisture content subject to time” value ([1]; 120 minutes after application) was 52.11 A.U.

In the case of `Cc1cc(C(C)(C)C)c(O)c(C(C)(C)C)c1` [BHT], the “Active oxygen scavenging rate IC50” value [2] is reported as 154 ppm and the “Free radical scavenging rate SC50” value [3] is reported as 125 ppm.
